Experimental data: article PMC10377586 (Biomolecules, 2023)

What was measured:
[1] = molecular target: human dopamine D2L receptors (Homo sapiens, UniProt P14416); assay: cAMP accumulation assay in forskolin-stimulated HEK293 cells expressing hD2R; assay type: cell-based
Protocol: Briefly, HEK293 cells stably expressing human D2LR were incubated (30 min, room temperature) with forskolin (1 μM) and evaluated compounds in triplicates (7 appropriate concentrations in a range spanning over 6 log units) in presence of phosphodiesterase inhibitor (RO-201724, 100 μM). Subsequently, intracellular cAMP accumulation was measured with homogenous TR-FRET immunoassay, using LANCE Ultra cAMP kit (PerkinElmer) and following manufacturer’s instructions. TR-FRET signal, inversely proportional to cAMP concentration in sample, was measured using Infinite M1000 Pro microplate reader (Tecan, Männedorf, Switzerland). Sigmoidal dose–response curve fitting was performed, using GraphPad Prism™ software (version 5.01, San Diego, CA, USA).

[2] = test system: SH-SY5Y cells; assay: Intrinsic neurotoxicity, LDH release from SH-SY5Y cells; assay type: cell-based; details: 50 µM
Protocol: (§1) For neuroprotection studies, a cellular model of neuroblastoma SH-SY5Y cells exposed to hydrogen peroxide was applied. Lactate dehydrogenase (LDH) release was used as a measure of cell death. First, the compounds (11a, 11c, 12, 13, 20a, 21, and 22) were tested for their possible intrinsic neurotoxicity to the SH-SY5Y cell line (see Supplementary Figure S1). […] All other compounds were tested for cytoprotective effects against H2O2-induced toxicity in SH-SY5Y cells.
(§2) Neuroblastoma SH-SY5Y cells were seeded at the density of 20,000 cells per well to 96-well plates one day before the experiment. Twelve hours prior to start of the assay, cell culture medium was replaced with the fresh portion of reduced serum (1%) medium. Tested compounds were added to the cells at the final concentration of 10 or 50 µM in 1% DMSO. In the neuroprotection studies, hydrogen peroxide, at a final concertation of 300 µM, was pipetted to the assay plate 1 h after tested compounds addition. Cell death, represented by the release of LDH through the perforated cell membrane, was measured following 14 h incubation of cells with the compounds and hydrogen peroxide. LDH levels in cell culture medium were determined using fluorometric CytoTox-ONE Homogeneous Membrane Integrity Assay (Promega Corporation, Madison, WI, USA), according to manufacturer’s instructions.
Supplementary Figure 1. […]

[3] = molecular target: T1, rat A2A (rA2A) ARs (Rattus norvegicus, UniProt P30543); assay: Radioligand binding [3H]MSX-2, rat brain striatal membranes; details: read-out: rA2A [3H]MSX-2 % inhibition ± SEM at 10 µM
T1 construct: rat brain striatal membrane preparations for A2A AR assays; tissue Pel Freez; host or cells: rat brain striatum membranes

[4] = test system: SH-SY5Y cells; assay: Neuroprotection against H2O2-induced toxicity, LDH assay; assay type: cell-based; details: 300 µM hydrogen peroxide, compounds at 10 or 50 µM
Protocol: as §1, §2
Figure 3 The ability of tested compounds to reduce the cytotoxicity of 300 μM hydrogen peroxide (HP) on dopaminergic neuronal cells (SH-SY5Y) as judged by LDH assay. Data represent the mean of two experiments performed in triplicate. Results are presented as percent of cytotoxicity induced by 300 µM hydrogen peroxide (HP) ± SEM. NT–vehicle control (1% DMSO).

Sequence of human dopamine D2L receptors (P14416 whole entry): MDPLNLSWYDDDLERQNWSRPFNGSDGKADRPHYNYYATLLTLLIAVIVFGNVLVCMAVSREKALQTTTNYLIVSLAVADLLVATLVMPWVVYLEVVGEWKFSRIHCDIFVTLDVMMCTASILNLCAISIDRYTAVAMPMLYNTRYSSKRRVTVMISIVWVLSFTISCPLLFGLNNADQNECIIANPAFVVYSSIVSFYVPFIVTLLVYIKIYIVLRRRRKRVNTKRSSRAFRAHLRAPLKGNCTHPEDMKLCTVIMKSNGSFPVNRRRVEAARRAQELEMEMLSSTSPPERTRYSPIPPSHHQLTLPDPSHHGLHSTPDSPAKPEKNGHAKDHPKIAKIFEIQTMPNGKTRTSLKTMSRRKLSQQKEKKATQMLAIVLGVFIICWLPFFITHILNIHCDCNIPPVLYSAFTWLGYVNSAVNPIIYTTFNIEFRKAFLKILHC
T1 sequence (P30543 whole entry): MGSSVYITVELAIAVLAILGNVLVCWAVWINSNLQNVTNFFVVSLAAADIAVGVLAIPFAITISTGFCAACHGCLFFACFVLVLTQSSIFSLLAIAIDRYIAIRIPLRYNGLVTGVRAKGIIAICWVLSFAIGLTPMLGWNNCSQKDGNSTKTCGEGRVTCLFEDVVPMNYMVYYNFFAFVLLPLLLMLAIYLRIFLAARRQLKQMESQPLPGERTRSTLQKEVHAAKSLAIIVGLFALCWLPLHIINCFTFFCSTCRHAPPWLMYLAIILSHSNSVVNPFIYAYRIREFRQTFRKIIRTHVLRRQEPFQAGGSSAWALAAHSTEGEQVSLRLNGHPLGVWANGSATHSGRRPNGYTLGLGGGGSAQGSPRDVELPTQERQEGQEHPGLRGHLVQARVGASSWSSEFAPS

CCCCn1c(=O)c2c(nc(NCCc3ccc(O)c(O)c3)n2CCC)n(CCCC)c1=O [Compound 13, 1,3-Dibutyl-8-((3,4-dihydroxyphenethyl)amino)-7-propyl-3,7-dihydro-1H-purine-2,6-dione]
EC50 ([1]; forskolin-stimulated HEK293 cells, human D2L, read-out: EC50, functional cAMP assay): 11.3 µM | intrinsic activity at D2R ([1]; functional cAMP assay): agonistic properties | intrinsic neurotoxicity to SH-SY5Y cell line (LDH release) [2]: significant cytotoxicity

CCCCCCn1c(NCCc2ccc(O)c(O)c2)nc2c1c(=O)n(C)c(=O)n2C [Compound 11i, 8-((3,4-Dihydroxyphenethyl)amino)-7-hexyl-1,3-dimethyl-3,7-dihydro-1H-purine-2,6-dione]
inhibition at 10 µM [3]: 14%

CCCCn1c(=O)c2c(nc3n2CCCN3CCc2ccc(O)c(O)c2)n(CCCC)c1=O [Compound 22, 1,3-Dibutyl-9-(3,4-dihydroxyphenethyl)-6,7,8,9-tetrahydropyrimido[2,1-f]purine-2,4(1H,3H)-dione]
cytoprotective effect against H2O2-induced toxicity (LDH release) [4]: most potent

CCCn1c(=O)c2c(nc(NCCc3ccc(O)c(O)c3)n2CCC)n(CCC)c1=O [Compound 12, 8-((3,4-Dihydroxyphenethyl)amino)-1,3,7-tripropyl-3,7-dihydro-1H-purine-2,6-dione]
cytoprotective effect against H2O2-induced toxicity (LDH release) [4]: most potent | dose dependence of cytoprotective effect [4]: Dose-dependent responses

CCCn1c(=O)c2c(nc3n2CCCN3CCc2ccc(O)c(O)c2)n(CCC)c1=O [Compound 21, 9-(3,4-Dihydroxyphenethyl)-1,3-dipropyl-6,7,8,9-tetrahydropyrimido[2,1-f]purine-2,4(1H,3H)-dione]
cytoprotective effect against H2O2-induced toxicity (LDH release) [4]: most potent | dose dependence of cytoprotective effect [4]: Dose-dependent responses

CCCn1c(NCCc2ccc(O)c(O)c2)nc2c1c(=O)n(C)c(=O)n2C [Compound 11c, 8-((3,4-Dihydroxyphenethyl)amino)-1,3-dimethyl-7-propyl-3,7-dihydro-1H-purine-2,6-dione]
dose dependence of cytoprotective effect [4]: Dose-dependent responses

Cn1c(=O)c2c(nc(NCCc3ccc(O)c(O)c3)n2CCc2ccccc2)n(C)c1=O [Compound 11k, 8-((3,4-Dihydroxyphenethyl)amino)-1,3-dimethyl-7-phenethyl-3,7-dihydro-1H-purine-2,6-dione]
inhibition at 10 µM [3]: 44%
